In PMC9299836 (eLife, 2022):

Biological target: mGluR2 (Mus musculus, UniProt Q14BI2, A548F)
Assay: smFRET of azi-CRD: cross-correlation of donor and acceptor intensities (CRD dynamics) and HMM transition density plots;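 note: single detergent-solubilized receptors captured on antibody-coated flow cells via C-terminal FLAG-tag, imaged by smFRET, donor and acceptor intensity traces from three independent biological replicates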

Chain of mGluR2 (Q14BI2 19-872 A548F): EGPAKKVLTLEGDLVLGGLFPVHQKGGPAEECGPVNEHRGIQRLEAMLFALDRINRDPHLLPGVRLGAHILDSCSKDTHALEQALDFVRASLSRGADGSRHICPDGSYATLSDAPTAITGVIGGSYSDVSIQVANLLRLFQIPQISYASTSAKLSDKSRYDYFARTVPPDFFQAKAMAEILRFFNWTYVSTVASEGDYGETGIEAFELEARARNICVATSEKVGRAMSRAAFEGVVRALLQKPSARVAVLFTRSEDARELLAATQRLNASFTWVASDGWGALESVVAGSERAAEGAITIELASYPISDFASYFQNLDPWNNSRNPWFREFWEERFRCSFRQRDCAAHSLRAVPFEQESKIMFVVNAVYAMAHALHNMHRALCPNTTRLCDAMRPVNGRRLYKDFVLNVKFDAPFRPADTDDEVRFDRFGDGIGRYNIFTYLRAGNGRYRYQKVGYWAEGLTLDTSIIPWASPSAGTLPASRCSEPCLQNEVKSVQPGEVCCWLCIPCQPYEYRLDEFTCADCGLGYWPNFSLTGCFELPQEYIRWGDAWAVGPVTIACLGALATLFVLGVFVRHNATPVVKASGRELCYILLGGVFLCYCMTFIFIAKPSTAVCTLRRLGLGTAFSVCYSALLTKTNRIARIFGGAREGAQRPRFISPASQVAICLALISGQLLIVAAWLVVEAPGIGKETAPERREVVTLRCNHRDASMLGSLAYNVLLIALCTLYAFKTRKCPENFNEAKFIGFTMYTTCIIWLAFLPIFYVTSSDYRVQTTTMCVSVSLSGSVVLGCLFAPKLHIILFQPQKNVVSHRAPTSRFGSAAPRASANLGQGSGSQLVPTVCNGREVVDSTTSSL

- Cross Correlation, Mean (0μM Glutamate + GPT/Pyruvate + 10μM BINA, Time 2.3 s, N 3): -0.01949
- Cross Correlation, Mean (0μM Glutamate + GPT/Pyruvate + 10μM BINA, Time 2.35 s, N 3): -0.01229
- Cross Correlation, Mean (0μM Glutamate + GPT/Pyruvate + 10μM BINA, Time 2.4 s, N 3): -0.01405
- Cross Correlation, Mean (0μM Glutamate + GPT/Pyruvate + 10μM BINA, Time 2.45 s, N 3): -0.01492
- Cross Correlation, Mean (0μM Glutamate + GPT/Pyruvate + 10μM BINA, Time 2.5 s, N 3): -0.01729
- Cross Correlation, Mean (0μM Glutamate + GPT/Pyruvate + 10μM BINA, Time 2.55 s, N 3): -0.01573
- Cross Correlation, Mean (0μM Glutamate + GPT/Pyruvate + 10μM BINA, Time 2.6 s, N 3): -0.01304
- Cross Correlation, Mean (0μM Glutamate + GPT/Pyruvate + 10μM BINA, Time 2.65 s, N 3): -0.01522
- Cross Correlation, Mean (0μM Glutamate + GPT/Pyruvate + 10μM BINA, Time 2.7 s, N 3): -0.01589
- Cross Correlation, Mean (0μM Glutamate + GPT/Pyruvate + 10μM BINA, Time 2.75 s, N 3): -0.00863
- Cross Correlation, Mean (0μM Glutamate + GPT/Pyruvate + 10μM BINA, Time 2.8 s, N 3): -0.00835
- Cross Correlation, Mean (0μM Glutamate + GPT/Pyruvate + 10μM BINA, Time 2.85 s, N 3): -0.01318
- Cross Correlation, Mean (0μM Glutamate + GPT/Pyruvate + 10μM BINA, Time 2.9 s, N 3): -0.01103
- Cross Correlation, Mean (0μM Glutamate + GPT/Pyruvate + 10μM BINA, Time 2.95 s, N 3): -0.01389
- Cross Correlation, Mean (Time 0.2 s, 1000μM Glutamate + 10μM BINA, N=3): -0.07372
- Cross Correlation, Mean (Time 0.25 s, 1000μM Glutamate + 10μM BINA, N=3): -0.0658
- Cross Correlation, Mean (Time 0.3 s, 1000μM Glutamate + 10μM BINA, N=3): -0.06773
- Cross Correlation, Mean (Time 0.35 s, 1000μM Glutamate + 10μM BINA, N=3): -0.06255
- Cross Correlation, Mean (Time 0.4 s, 1000μM Glutamate + 10μM BINA, N=3): -0.05489
- Cross Correlation, Mean (Time 0.45 s, 1000μM Glutamate + 10μM BINA, N=3): -0.05062
- Cross Correlation, Mean (Time 0.5 s, 1000μM Glutamate + 10μM BINA, N=3): -0.04608
- Cross Correlation, Mean (Time 0.55 s, 1000μM Glutamate + 10μM BINA, N=3): -0.05414
- Cross Correlation, Mean (Time 0.6 s, 1000μM Glutamate + 10μM BINA, N=3): -0.0452
- Cross Correlation, Mean (Time 0.65 s, 1000μM Glutamate + 10μM BINA, N=3): -0.04488
- Cross Correlation, Mean (Time 0.7 s, 1000μM Glutamate + 10μM BINA, N=3): -0.04657
- Cross Correlation, Mean (Time 0.75 s, 1000μM Glutamate + 10μM BINA, N=3): -0.03909
- Cross Correlation, Mean (Time 0.8 s, 1000μM Glutamate + 10μM BINA, N=3): -0.03858
- Cross Correlation, Mean (Time 0.85 s, 1000μM Glutamate + 10μM BINA, N=3): -0.03795
- Cross Correlation, Mean (Time 0.9 s, 1000μM Glutamate + 10μM BINA, N=3): -0.04083
- Cross Correlation, Mean (Time 0.95 s, 1000μM Glutamate + 10μM BINA, N=3): -0.04226
- Cross Correlation, Mean (Time 1 s, 1000μM Glutamate + 10μM BINA, N=3): -0.03681
- Cross Correlation, Mean (Time 1.05 s, 1000μM Glutamate + 10μM BINA, N=3): -0.03546
- Cross Correlation, Mean (Time 1.1 s, 1000μM Glutamate + 10μM BINA, N=3): -0.03003
- Cross Correlation, Mean (Time 1.15 s, 1000μM Glutamate + 10μM BINA, N=3): -0.02551
- Cross Correlation, Mean (Time 1.2 s, 1000μM Glutamate + 10μM BINA, N=3): -0.0316
- Cross Correlation, Mean (Time 1.25 s, 1000μM Glutamate + 10μM BINA, N=3): -0.02716
- Cross Correlation, Mean (Time 1.3 s, 1000μM Glutamate + 10μM BINA, N=3): -0.03167
- Cross Correlation, Mean (Time 1.35 s, 1000μM Glutamate + 10μM BINA, N=3): -0.03105
- Cross Correlation, Mean (Time 1.4 s, 1000μM Glutamate + 10μM BINA, N=3): -0.03283
- Cross Correlation, Mean (Time 1.45 s, 1000μM Glutamate + 10μM BINA, N=3): -0.03008
- Cross Correlation, Mean (Time 1.5 s, 1000μM Glutamate + 10μM BINA, N=3): -0.02156
- Cross Correlation, Mean (Time 1.55 s, 1000μM Glutamate + 10μM BINA, N=3): -0.02279
- Cross Correlation, Mean (Time 1.6 s, 1000μM Glutamate + 10μM BINA, N=3): -0.0244
- Cross Correlation, Mean (Time 1.65 s, 1000μM Glutamate + 10μM BINA, N=3): -0.02489
- Cross Correlation, Mean (Time 1.7 s, 1000μM Glutamate + 10μM BINA, N=3): -0.02216
- Cross Correlation, Mean (Time 1.75 s, 1000μM Glutamate + 10μM BINA, N=3): -0.02536
- Cross Correlation, Mean (Time 1.8 s, 1000μM Glutamate + 10μM BINA, N=3): -0.02663
- Cross Correlation, Mean (Time 1.85 s, 1000μM Glutamate + 10μM BINA, N=3): -0.0191
- Cross Correlation, Mean (Time 1.9 s, 1000μM Glutamate + 10μM BINA, N=3): -0.02267
- Cross Correlation, Mean (Time 1.95 s, 1000μM Glutamate + 10μM BINA, N=3): -0.02058
- Cross Correlation, Mean (Time 2 s, 1000μM Glutamate + 10μM BINA, N=3): -0.01998
- Cross Correlation, Mean (Time 2.05 s, 1000μM Glutamate + 10μM BINA, N=3): -0.02099
- Cross Correlation, Mean (Time 2.1 s, 1000μM Glutamate + 10μM BINA, N=3): -0.01699
- Cross Correlation, Mean (Time 2.15 s, 1000μM Glutamate + 10μM BINA, N=3): -0.01762
- CRD dynamics by cross-correlation of donor and acceptor intensities (azi-CRD, 10 μM modulator, absence of glutamate): increased receptor dynamics
SMILES: Cc1c(OCc2cccc(-c3ccc(C(=O)O)cc3)c2)cc2c(c1C)C(=O)C(C1CCCC1)C2 (stereo not shown) [BINA]
